Experiments:
[1] = tested on: HDAC7 (Ser155, Ser318, Ser448 phosphorylation); assay: HDAC7 phosphorylation by Western blot with antiphospho-HDAC7 antisera in DO11.10-HDAC7-Flag cells; type: cell-based, human
Experimental: DO11.10-HDAC7-Flag cells were untreated or treated with either PMA or anti CD3 antibody for the indicated times. Total cellular extracts were prepared in 20 mM Hepes (pH 7.5), 10 mM EGTA, 22.5 mM MgCl2, 1% NP-40, 2 mM orthovanadate, 1 mM dithiothreitol, and 0.5 mM phenyl-methyl sulfonyl fluoride supplemented with protease inhibitors, and subjected to Western blot analysis.
Antibodies against mouse HDAC7 phosphorylated at serine residues 178, 344 and 479 were generated (Sigma Genosys, INC., Houston Tex. 77216-1508, USA). Briefly, rabbits were immunized with KLH-conjugated peptides. The phosphopeptides used to generate the phosphor-specific antibodies were FPLRTV[pSer]EPNLKL for P-Ser178, RPLNRTR[pSer]EPLPPS for P-Ser344 and RPLSRTQ[pSer]SPAAPV for P-Ser479. [pSer] indicates the phosphate group on the conserved serine residues. HDAC7 phospho specific antibodies were purified from crude rabbit serum by double affinity purification with nonphosphorylated and phosphorylated peptide. The corresponding serine residues can be found in human HDAC7 at amino acid positions 155, 318, and 448, respectively.
Using these antisera, the state of phosphorylation of HDAC7 following PMA treatment was assessed. […] Phosphatase treatment of immunoprecipitated HDAC7 abolished the reactivity of the different phosphor-HDAC7 antibodies confirming their specificity for phosphorylated HDAC7 (FIG. 6A).
To test the possibility that HDAC7 became dephosphorylated by a phosphatase, cells were stimulated with PMA followed by the addition of okadaic acid, a phosphatase inhibitor, for the rest of the time course. Consistent with the hypothesis that HDAC7 is dephosphorylated by a phosphatase, okadaic acid treatment led to persistent phosphorylation of HDAC7 at each site up to 24 h (FIG. 6B).
To further probe the role of myosin phosphatase in the dephosphorylation of HDAC7 in vivo, small interfering RNAs (siRNAs) specific for PP1β and MYPT1 were introduced into DO11.10 cells expressing HDAC7. With an siRNA control (siCo), HDAC7 was transiently phosphorylated in response to PMA, with a peak at 2 h, and rapidly dephosphorylated thereafter (FIG. 11B, left panel). […] Further, HDAC7 remained phosphorylated up to 8 h after PMA stimulation (FIG. 11B, right panel).

HDAC7-GFP = HDAC7-GFP subcellular localization by immunofluorescence microscopy in DO11.10 cells; type: cell-based
Experimental: DO11.10 cells (5×10^6) were nucleofected with an HDAC7-GFP expression vector together with either siRNA control or siRNAs for PP1β and MYPT1. Cells ([…]) were seeded onto poly-L-lysine-coated coverslips 12 h after nucleofection and allowed to attach for 12 h. Cells were stimulated with 10 ng/ml PMA. HDAC7 was localized by immunofluorescence microscopy with a confocal fluorescence microscope (Olympus BX60, Bio-Rad).
To determine whether the changes in HDAC7 phosphorylation affected the subcellular localization of the protein, the fate of an HDAC7-GFP fusion protein in response to PMA was followed. […] The subcellular localization of HDAC7 also closely paralleled serine 155, serine 318, and serine 448 phosphorylation. While resting cells […] nuclear exclusion of HDAC7, more than 75% of activated cells excluded HDAC7 from the nucleus at 2 hours after stimulation (FIG. 7A). However, this exclusion was transient and HDAC7 progressively returned to the nucleus over the next few hours (FIGS. 7A, 7B). Significant reimport of HDAC7-GFP into the nucleus occurred at 4 h after PMA treatment, a time course that paralleled HDAC7 dephosphorylation (FIGS. 7A, 7B). […] Phosphatases have been predicted to regulate the nucleo-cytoplasmic shuttling of other class IIa HDAC, such as HDAC4, 5, and 9 for some time but have not been identified so far. […]

Nur77 = Nur77 expression by Western blot in DO11.10 cells; settings: after PMA treatment
Experimental: SDS-PAGE and Western blot analysis were performed according to standard procedures. Western blots were developed with the ECL detection kit (Amersham Pharmacia Biotech, Piscataway, N.J.).

SMILES	HDAC7 phosphorylation at each serine after treatment ([1]; DO11.10 stably expressing HDAC7-Flag, Western blot of immunoprecipitated HDAC7)	start of progressive decrease in HDAC7 phosphorylation after treatment ([1]; all three serine residues, total HDAC7 content unchanged) [h]	time of maximum (full) HDAC7 phosphorylation after stimulation ([1]; time course, DO11.10-HDAC7-Flag cells) [h]	percentage of cells excluding HDAC7 from the nucleus (HDAC7-GFP; 2 hours after stimulation)	percentage of cells showing nuclear exclusion of HDAC7 (HDAC7-GFP; 24 hours after stimulation) [%]	time of peak Nur77 induction (Nur77) [h]	time up to which HDAC7 remained phosphorylated after PMA stimulation ([1]; agent applied together with PMA stimulation, DO11.10-HDAC7-Flag cells)
CCCCCCCCCCCCCC(=O)O[C@@H]1[C@@H](C)[C@@]2(O)[C@@H](C=C(CO)C[C@]3(O)C(=O)C(C)=C[C@@H]23)[C@@H]2C(C)(C)[C@]12OC(C)=O [PMA]	increased HDAC7 phosphorylation at each serine	4	1 to 2	more than 75%	< 20	2	
C=C1[C@@H](O)[C@@H]2O[C@]3(CC[C@H](/C=C/[C@@H](C)[C@@H]4CC(C)=C[C@@]5(O[C@H](C[C@@](C)(O)C(=O)O)CC[C@H]5O)O4)O3)CC[C@H]2O[C@@H]1[C@@H](O)C[C@H](C)[C@H]1O[C@@]2(CCCCO2)CC[C@H]1C [okadaic acid]							up to 24 h
